Test results taken from patent US20070203215A1, “Methods & Compositions For Enhancing Pharmaceutical Treatments” (Taiji Biomedical, Inc., priority 1999, published 2007).

How the values were obtained:
P450 CYP3A4 = P450 CYP3A4 (Homo sapiens, UniProt P08684); test: Metabolism by P450 CYP3A4; assay type: in vitro ADME
From the text: Two enzymes primarily responsible for metabolism of paclitaxel are P450 CYP3A4 and CYP2C8. Some P-gp inhibitors are also metabolized by P450 CYP 3A4, leading to inhibition of paclitaxel metabolism. This may contribute to PK interactions with paclitaxel.

MDA/LCC6^MDR1 tumors = test: In vivo antitumor efficacy, orthotopic MDA/LCC6^MDR1 tumors; parameters: species or system SCID/RAG2 mice
Description: Anti-tumor efficacy experiments with orthotopic MDA/LCC6 and MDA/LCC6^MDR1 tumors were conducted in female SCID/RAG2 mice. Ascites propagated cells (2×10^6 in 50 μl) were injected into mammary fat pads bilaterally on day 0 before randomization into groups of 5 mice per group. Paclitaxel (12 mg/kg/dose) was administered QD i.v. (tail vein) in 200 μl saline/Cremophor/ethanol (8/1/1 by volume) on days 5, 12, 19, and 26. The compound of Formula 2-free base (30 mg/kg/dose) was administered BID p.o. by gavage in 100 μl PEG 400/Tween 20 (9/1 by volume) on days 4-6, 11-13, 18-20, and 25-27. Mean body weights were recorded at least every other day. Tumor weight was monitored approximately every other day by caliper measurements and calculated according to the formula (Tumor weight =(length×width^2)÷2). This conversion formula was verified by comparing the calculation derived tumor weights to excised and weighed tumors. Animals bearing ulcerated tumors or where tumor weight exceeded 10% of the animal's body weight were terminated. The weights of the bilateral tumors were averaged for each mouse and mean tumor weights for each treatment group±standard error of the mean were calculated. Statistical analysis was carried out by Mann-Whitney test using GraphPad Prism software (San Diego, Calif.).
The compound of Formula 2 was administered the afternoon before, 2 hours before and 6 hours after each paclitaxel dose. The ability of orally administered Formula 2 compound to reverse MDR in solid tumors in vivo was assessed with the MDA/LCC6^MDR1 model. Because the compound of Formula 2 produced no effect on paditaxel blood levels, focus on up-front therapy (for naive animals) or minimal residual disease models was maintained, as opposed to established tumors. MDA/LCC6^MDR1 cells that express P-gp were resistant to paclitaxel treatment in vitro and this resistance was reversed by the compound of Formula 2 (FIG. 1). […] Similar results were obtained in three independent experiments with two different strains of immunocompromised mice (SCID/RAG-2 and athymic). […]

[1] = PK interaction study, i.v. plasma paclitaxel levels; assay type: in vivo, SCID/RAG2 mice; conditions: three oral doses of 30 mg/kg before i.v. 16 mg/kg paclitaxel, FIG. 5
Description: At the indicated times after paclitaxel administration, 3 mice per time point were anesthetized with CO2 and blood was removed by cardiac puncture into Microtainer tubes containing EDTA. Plasma samples generated by centrifugation were extracted with acetonitrile and the analysis for paclitaxel content was carried out by HPLC using a Waters 600E multisolvent delivery system, 717 plus autosampler and 996 photodiode array detector. Baccatin III (0.8 nmoles/200 μl plasma) was used as the internal standard (IS) and added to plasma samples during extraction with acetonitrile. Standard curve samples as well as quality control samples were also prepared from spiked control plasma in order to verify the accuracy of the HPLC analysis. […] Waters, Milford, Mass.) with double distilled water (A), and acetonitrile (B), using the following gradient profile: t=0 min, 10% B; t=5 min, 10% B; t=30 min, 65% B; t=40 min, 65% B; t=45 min, 10% B; t=50 min, 10% B. The gradient was formed using a high pressure mixer and the flow rate was 1.0 ml min^−1. A Waters 996 Photo Diode Array Detector was used to scan at multiple wavelengths and chromatograms were processed for traces obtained at 230 nm.

SK/VLB1000 = test: Cell proliferation assay; assay type: cell-based; conditions: Homo sapiens; Ovarian carcinoma SK/VLB1000, P-gp Pos; read-out: Formula 2 compound IC50 (inhibition of growth)
Description: (§1) Cell proliferation IC50s and MDR reversal EC50s were determined from 3-day dose-response curves carried out in triplicate in 96-well plates essentially as described by Monks et al. (J. Natl. Cancer Inst., 83:757-66, 1991). Cells were plated in standard growth medium at 2.5 or 5.0×10^4 per well (CCRF-CEM and CEM/VLB1000 respectively) or 5×10^3 per well (all other cell lines) in a final volume of 100 μl. After a 2 h incubation for non-adherent cells and overnight incubation for adherent cells, the initial cell density was determined by fluorescence readout of Alamar Blue metabolism. The compound of Formula 2, cytotoxic agents, or compound vehicles were added to duplicate plates and the incubation was continued for an additional 72 h. Final cell density was determined with Alamar Blue. In some experiments, a standard endpoint assay was used without analysis of initial cell density with Alamar Blue. Similar results were obtained with the two assays. EC50s were derived by nonlinear regression analysis assuming a sigmoidal dose-response using GraphPad Prism Software (San Diego, Calif.). Proliferation assays capable of measuring both cytostatic and cytotoxic responses were carried out as described herein with 15 non-transformed and transformed cell lines, including primary fibroblasts, non-transformed smooth muscle, leukemia, breast, colon, ovarian and uterine carcinoma cells (±P-gp expression). Although the compound of Formula 2 reversed P-gp-mediated MDR in the low nanomolar concentration range, the compound was non-cytotoxic by itself at doses up to 100 μM in all cell lines. […] IC50s for non-specific cytotoxicity were similar in matched cell lines plus and minus P-gp expression. […] If it were, some consistent degree of resistance would be expected in P-gp expressing cells.

HISM = test: Cell proliferation assay; assay type: cell-based; conditions: Homo sapiens; Smooth muscle HISM; read-out: Formula 2 compound IC50 (inhibition of growth)
Description: as §1

HCT-15 = test: Cell proliferation assay; assay type: cell-based; conditions: Homo sapiens; Colorectal carcinoma HCT-15, P-gp Pos; read-out: Formula 2 compound IC50 (inhibition of growth)
Description: as §1

SW620 = test: Cell proliferation assay; assay type: cell-based; conditions: Homo sapiens, SW-620; Colorectal carcinoma SW620, P-gp Neg; read-out: Formula 2 compound IC50 (inhibition of growth)
Description: as §1

MCF-7 = test: Cell proliferation assay; assay type: cell-based; conditions: Homo sapiens, MCF7; Breast carcinoma MCF-7, P-gp Neg; read-out: Formula 2 compound IC50 (inhibition of growth)
Description: as §1

MCF-7/ADR = test: Cell proliferation assay; assay type: cell-based; conditions: Homo sapiens, NCI/ADR-RES; Breast carcinoma MCF-7/ADR, P-gp Pos; read-out: Formula 2 compound IC50 (inhibition of growth)
Description: as §1

P450 CYP3A4, sequence (P08684 whole entry): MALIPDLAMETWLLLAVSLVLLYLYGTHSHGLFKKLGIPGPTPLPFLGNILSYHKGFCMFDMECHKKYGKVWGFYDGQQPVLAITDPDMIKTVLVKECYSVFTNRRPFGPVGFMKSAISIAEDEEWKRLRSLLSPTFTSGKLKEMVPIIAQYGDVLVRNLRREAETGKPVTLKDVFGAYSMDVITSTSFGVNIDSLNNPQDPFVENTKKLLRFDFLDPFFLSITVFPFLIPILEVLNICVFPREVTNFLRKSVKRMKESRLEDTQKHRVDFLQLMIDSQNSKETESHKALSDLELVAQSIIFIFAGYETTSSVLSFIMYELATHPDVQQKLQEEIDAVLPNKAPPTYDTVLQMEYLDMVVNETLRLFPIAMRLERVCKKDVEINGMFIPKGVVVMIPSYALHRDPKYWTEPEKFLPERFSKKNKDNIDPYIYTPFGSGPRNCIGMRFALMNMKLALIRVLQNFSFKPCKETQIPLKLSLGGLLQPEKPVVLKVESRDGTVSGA

## CCOC/C=C/c1ccc(-c2nc(-c3ccc(NC(C)C)cc3)c(-c3ccc(NC(C)C)cc3)[nH]2)cc1 [Formula 2 compound]
P450 CYP3A4
  Metabolism by P450 CYP3A4: not metabolized
MDA/LCC6^MDR1 tumors; Formula 2 compound and paclitaxel combined, persisted at least two weeks after last paclitaxel dose
  In vivo tumor growth: statistically significant inhibition of tumor growth
MDA/LCC6^MDR1 tumors; single agent alone, paclitaxel 12 mg/kg i.v., Formula 2 free base 30 mg/kg p.o.
  In vivo tumor growth compared to the vehicle control: no significant effect
[1]
  Effect on i.v. plasma paclitaxel levels: no effect
SK/VLB1000
  IC50: 15 µM
HISM
  IC50: > 100 µM
HCT-15
  IC50: 6 µM
SW620
  IC50: > 100 µM
MCF-7
  IC50: 30 µM
MCF-7/ADR
  IC50: 68 µM
